Several values for one entry are separate records, joined by “and”; a condition that tells them apart may be missing. Equal values may be shown once. ± gives the expanded uncertainty stated by the source.
Conditions: for vapor or sublimation pressure: Closed cell (Static) method; for mass density: Fluid (supercritical or subcritical phases), isochoric method

N [ammonia]
Conditions | Critical density [kg/m3] | Critical temperature [K] | mass density | vapor or sublimation pressure
310 K, Liquid | – | – | – | 1423.6 ± 2.9 kPa [middle of 6 runs]
350 K, Liquid | – | – | – | 3867 ± 6.3 kPa [middle of 5 runs]
400 K, Liquid | – | – | – | 10303 ± 16 kPa [middle of 4 runs]
404.5 K, Liquid | – | – | – | 11148 ± 0.033 kPa and 11151 ± 0.033 kPa and 11150 ± 0.033 kPa
405.5 K, Liquid | – | – | – | 11343 ± 0.033 kPa
405.53 K, Liquid | – | – | – | 11351 ± 0.033 kPa
405.54 K, Liquid | – | – | – | 11352 ± 0.033 kPa and 11354 ± 0.033 kPa and 11353 ± 0.033 kPa
405.55 K, 11351 kPa | – | – | 235.01 ± 2 kg/m3 | –
405.55 K, 11355 kPa | – | – | 249.99 ± 2 kg/m3 | –
405.55 K, 11359 kPa | – | – | 255.19 ± 2 kg/m3 | –
405.55 K, Liquid | – | – | – | 11356 ± 0.033 kPa [middle of 5 runs]
405.56 K, 11355 kPa | – | – | 242.91 ± 2 kg/m3 and 244.06 ± 2 kg/m3 | –
405.56 K, 11356 kPa | – | – | 241.93 ± 2 kg/m3 and 242.97 ± 2 kg/m3 | –
405.56 K, 11357 kPa | – | – | 244.01 ± 2 kg/m3 | –
405.56 K, 11358 kPa | – | – | 244.95 ± 2 kg/m3 and 243.49 ± 2 kg/m3 | –
405.56 K, 11359 kPa | – | – | 244 ± 2 kg/m3 | –
405.57 K, 11358 kPa | – | – | 242.95 ± 2 kg/m3 | –
405.57 K, 11360 kPa | – | – | 241.94 ± 2 kg/m3 and 244.1 ± 2 kg/m3 and 245.04 ± 2 kg/m3 | –
405.57 K, 11361 kPa | – | – | 243.96 ± 2 kg/m3 | –
405.57 K, 11370 kPa | – | – | 242.83 ± 2 kg/m3 | –
405.58 K, 11360 kPa | – | – | 243.01 ± 2 kg/m3 | –
405.58 K, 11362 kPa | – | – | 242.02 ± 2 kg/m3 and 244.08 ± 2 kg/m3 and 244.99 ± 2 kg/m3 | –
405.6 K, 11355 kPa | – | – | 224.92 ± 2 kg/m3 | –
405.6 K, 11356 kPa | – | – | 229.9 ± 2 kg/m3 | –
405.6 K, 11362 kPa | – | – | 235.14 ± 2 kg/m3 | –
405.6 K, 11363 kPa | – | – | 239.9 ± 2 kg/m3 | –
405.6 K, 11367 kPa | – | – | 245.12 ± 2 kg/m3 | –
Liquid, Visual observation in an unstirred cell | – | 405.56 ± 0.06 | – | –
Liquid, metal-bellows volumometer | 244 ± 2 | – | – | –
